Laboratory results published in patent publication US10039753B2, “Imidazo[4,5-c]quinoline and imidazo[4,5-c][1,5]naphthyridine derivatives as LRRK2 inhibitors” (Pfizer Inc., priority 2015, dated 2018).

What was measured:
[1] = molecular target: T1, mutant G2019S LRRK2 (Homo sapiens, UniProt Q5S007, G2019S); assay: LRRK2 Assay, Format 1 (Lantha Screen), G2019S mutant
[2] = molecular target: T2, GST-tagged truncated LRRK2 (Homo sapiens, UniProt Q5S007); assay: LRRK2 Assay, Format 2 (Lantha Screen), WT; assay type: biochemical
T2 construct: GST-tagged truncated LRRK2 from Invitrogen (Cat # PV4874); GST; purchased Invitrogen PV4874

[3] = molecular target: T1, mutant G2019S LRRK2; assay: LRRK2 Assay, Format 2 (Lantha Screen), G2019S mutant; assay type: biochemical; parameters: purchased Invitrogen PV4881
[4] = molecular target: T2, GST-tagged truncated LRRK2; assay: LRRK2 Assay, Format 1 (Lantha Screen), WT; assay type: biochemical
How it was run: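 Kinase activity measured by TR-FRET: GST-tagged truncated LRRK2 (4 μg/mL working solution) reacted with fluorescein-labeled LRRKtide (ERM-based peptide) across a compound dose response for 2 h at room temperature. Reaction stopped with EDTA-containing detection buffer (20 mM Tris pH 7.6) holding 2 nM terbium anti-phospho-ERM antibody.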

[5] = 100 nM LRRKtide, 50 μM ATP, 1.7 μg/mL LRRK2 enzyme, two hours at room temperature
[6] = geometric mean of 2-4 determinations unless otherwise indicated (a: >=5; b: single determination)
[7] = geometric mean of 2-4 determinations unless otherwise indicated (a: >=5; b: single determination), read-out: LRRK2, Format 2 G2019S IC50
[8] = geometric mean of 2-4 determinations unless otherwise indicated
[9] = Format 1, wild-type LRRK2, geometric mean of 2-4 determinations unless footnoted (a: ≥5 determinations; b: single determination; c: determined on trifluoroacetate salt)

T2 sequence (Q5S007 970-2527 limits assumed): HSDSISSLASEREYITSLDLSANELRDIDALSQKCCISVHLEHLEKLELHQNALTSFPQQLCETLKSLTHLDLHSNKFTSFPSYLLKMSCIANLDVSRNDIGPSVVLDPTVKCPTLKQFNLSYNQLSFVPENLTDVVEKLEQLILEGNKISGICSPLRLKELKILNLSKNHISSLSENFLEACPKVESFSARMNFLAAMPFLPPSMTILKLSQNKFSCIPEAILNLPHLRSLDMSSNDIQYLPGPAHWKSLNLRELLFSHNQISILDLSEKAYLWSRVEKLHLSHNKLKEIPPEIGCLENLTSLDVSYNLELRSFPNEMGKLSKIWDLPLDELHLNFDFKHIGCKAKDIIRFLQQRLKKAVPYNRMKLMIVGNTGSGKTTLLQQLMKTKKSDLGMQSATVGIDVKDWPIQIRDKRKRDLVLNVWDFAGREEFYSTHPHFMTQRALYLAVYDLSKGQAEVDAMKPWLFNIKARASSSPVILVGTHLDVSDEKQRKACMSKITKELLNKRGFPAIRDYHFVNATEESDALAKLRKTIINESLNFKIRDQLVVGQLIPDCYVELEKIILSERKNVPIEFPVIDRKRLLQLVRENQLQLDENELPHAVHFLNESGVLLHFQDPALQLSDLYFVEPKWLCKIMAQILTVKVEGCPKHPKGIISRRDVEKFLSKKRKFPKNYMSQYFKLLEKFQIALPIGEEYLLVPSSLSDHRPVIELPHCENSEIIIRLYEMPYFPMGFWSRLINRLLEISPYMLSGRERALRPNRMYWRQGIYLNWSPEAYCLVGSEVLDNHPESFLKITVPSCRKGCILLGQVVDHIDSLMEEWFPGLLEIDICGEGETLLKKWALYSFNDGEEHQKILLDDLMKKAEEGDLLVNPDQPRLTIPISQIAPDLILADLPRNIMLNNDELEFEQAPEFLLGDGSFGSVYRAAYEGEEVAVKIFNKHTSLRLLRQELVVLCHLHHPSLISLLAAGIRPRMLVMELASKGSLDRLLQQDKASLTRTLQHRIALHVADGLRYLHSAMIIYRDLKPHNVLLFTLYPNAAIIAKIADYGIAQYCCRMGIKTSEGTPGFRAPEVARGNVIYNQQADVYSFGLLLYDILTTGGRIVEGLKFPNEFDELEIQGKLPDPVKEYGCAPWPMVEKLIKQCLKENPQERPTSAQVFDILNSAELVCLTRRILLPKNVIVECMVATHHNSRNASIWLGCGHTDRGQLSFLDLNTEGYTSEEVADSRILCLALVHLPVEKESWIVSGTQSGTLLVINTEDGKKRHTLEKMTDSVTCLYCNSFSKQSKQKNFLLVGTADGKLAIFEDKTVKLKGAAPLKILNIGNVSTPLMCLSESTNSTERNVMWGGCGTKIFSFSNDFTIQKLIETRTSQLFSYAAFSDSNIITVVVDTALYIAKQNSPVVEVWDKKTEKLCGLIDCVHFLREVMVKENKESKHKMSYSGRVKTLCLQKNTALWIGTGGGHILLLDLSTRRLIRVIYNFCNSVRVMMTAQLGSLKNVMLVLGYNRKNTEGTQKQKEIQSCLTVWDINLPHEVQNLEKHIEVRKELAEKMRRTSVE
T1 sequence (Q5S007 970-2527 G2019S limits assumed): as the sequence (Q5S007 970-2527 limits assumed) above, with G1050S counted along it

Row | SMILES | IC50 [1] | IC50 [4, 5] | IC50 [2, 6] | IC50 [3, 7] | IC50 [4, 8] | other results
1 | Cc1nc(Cc2nc3cnc4ccc(Cl)cc4c3n2C2C[C@@H](C)[C@@H](F)C2)no1 (mixture of isomers) [diastereomer of Example 136, 8-chloro-1-[rel-(3S,4R)-3-fluoro-4-methylcyclopentyl]-2-[(5-methyl-1,2,4-oxadiazol-3-yl)methyl]-1H-imidazo[4,5-c]quinoline, DIAST-2] | 105 nM | 156 nM | – | – | – | IC50 ([2]; 100 nM LRRKtide, 1000 mM ATP (so in the source), 30 minutes at room temperature): 63.2 nM; IC50 ([3]; 100 nM LRRKtide, 1000 mM ATP (so in the source), 30 minutes at room temperature, read-out: LRRK2, Format 2 G2019S mutant IC50): 69.2 nM
2 | Cc1nc(Cc2nc3cnc4ccc(Cl)cc4c3n2C2C[C@@H](C)[C@@H](F)C2)no1 (single isomer, unassigned) [Example 136] | 24.7 nM | – | 12 nM | 13 nM | 30.1 nM | –
3 | Cc1cc(Cc2nc3cnc4ccc(Cl)cc4c3n2[C@@H]2CCO[C@H](CC#N)C2)no1 (single isomer, unassigned; ent-1) [Example 134, [cis-4-{8-chloro-2-[(5-methyl-1,2-oxazol-3-yl)methyl]-1H-imidazo[4,5-c]quinolin-1-yl}tetrahydro-2H-pyran-2-yl]acetonitrile, ENT-1] | 3.78 nM | – | 7.68 nM | 7.78 nM | 3.48 nM | –
4 | Cc1nc(Cc2nc3cnc4ccc(Cl)cc4c3n2[C@@H]2CCO[C@H](CC#N)C2)no1 (single isomer, unassigned; ent-1) [Example 135, [cis-4-{8-chloro-2-[(5-methyl-1,2,4-oxadiazol-3-yl)methyl]-1H-imidazo[4,5-c]quinolin-1-yl}tetrahydro-2H-pyran-2-yl]acetonitrile, ENT-1] | 3.65 nM | – | 16 nM | 15.5 nM | 3.78 nM | –
5 | COc1ccc2ncc3nc(Cc4cn5ncsc5n4)n([C@@H]4CCO[C@H](C)C4)c3c2c1 [Example 90, 2-(imidazo[2,1-b][1,3,4]thiadiazol-6-ylmethyl)-8-methoxy-1-[(2R,4R)-2-methyltetrahydro-2H-pyran-4-yl]-1H-imidazo[4,5-c]quinoline] | 6.4 nM | – | – | – | – | IC50 [4, 9]: 14.8 nM
6 | Cc1cnc(Cc2nc3cnc4ccc(Cl)cc4c3n2[C@@H]2CCO[C@H](C)C2)o1 [Example 92, 8-chloro-2-[(5-methyl-1,3-oxazol-2-yl)methyl]-1-[(2R,4R)-2-methyltetrahydro-2H-pyran-4-yl]-1H-imidazo[4,5-c]quinoline] | 11 nM | – | – | – | – | IC50 [4, 9]: 16.2 nM
7 | C[C@@H]1C[C@H](n2c(Cc3cc(C4CC4)on3)nc3cnc4ccc(C#N)cc4c32)CCO1 [Example 145, 2-[(5-cyclopropyl-1,2-oxazol-3-yl)methyl]-1-[(2R,4R)-2-methyltetrahydro-2H-pyran-4-yl]-1H-imidazo[4,5-c]quinoline-8-carbonitrile] | 4.8 nM | – | 6.98 nM | 7.33 nM | 4.78 nM | –
8 | CC(C)c1cc(Cc2nc3cnc4ccc(Br)cc4c3n2[C@@H]2CCO[C@H](C)C2)no1 [Example 171, 8-bromo-1-[(2R,4R)-2-methyltetrahydro-2H-pyran-4-yl]-2-{[5-(propan-2-yl)-1,2-oxazol-3-yl]methyl}-1H-imidazo[4,5-c]quinoline] | 15.9 nM | – | 5.2 nM | 5.35 nM | 17.1 nM | –
9 | C[C@@H]1C[C@H](n2c(Cc3cc(C4CC4)on3)nc3cnc4ccc(Br)cc4c32)CCO1 [Example 172, 8-bromo-2-[(5-cyclopropyl-1,2-oxazol-3-yl)methyl]-1-[(2R,4R)-2-methyltetrahydro-2H-pyran-4-yl]-1H-imidazo[4,5-c]quinoline] | 9.17 nM | – | 6 nM | 6.34 nM | 14.4 nM | –
10 | Cc1cn(Cc2nc3cnc4ccc(Br)cc4c3n2[C@@H]2CCO[C@H](C)C2)nn1 [Example 173, 8-bromo-1-[(2R,4R)-2-methyltetrahydro-2H-pyran-4-yl]-2-[(4-methyl-1H-1,2,3-triazol-1-yl)methyl]-1H-imidazo[4,5-c]quinoline] | 3.62 nM | – | 6.7 nM | 6.72 nM | 5.14 nM | –
11 | C[C@H]1C[C@@H](n2c(Cc3ccon3)nc3cnc4ccc(C#N)cc4c32)CCO1 [enantiomer of Example 22, 1-[(2 S,4S)-2-methyltetrahydro-2H-pyran-4-yl]-2-(1,2-oxazol-3-ylmethyl)-1H-imidazo[4,5-c]quinoline-8-carbonitrile] | 258 nM | 534 nM | – | – | – | –
12 | C[C@@H]1C[C@@H](n2c(Cc3ccon3)nc3cnc4ccc(C#N)cc4c32)CCO1 [enantiomer of Example 24, 1-[(2R,4S)-2-methyltetrahydro-2H-pyran-4-yl]-2-(1,2-oxazol-3-ylmethyl)-1H-imidazo[4,5-c]quinoline-8-carbonitrile] | 134 nM | 267 nM | – | – | – | –
13 | C[C@H]1C[C@@H](n2c(Cc3ccon3)nc3cnc4ccc(F)cc4c32)CCO1 [enantiomer of Example 54, 8-fluoro-1-[(2S,4S)-2-methyltetrahydro-2H-pyran-4-yl]-2-(1,2-oxazol-3-ylmethyl)-1H-imidazo[4,5-c]quinoline] | 236 nM | 332 nM | – | – | – | –
14 | C[C@H]1C[C@@H](n2c(Cc3cscn3)nc3cnc4ccc(C#N)cc4c32)CCO1 [enantiomer of Example 57, 1-[(2S,4S)-2-methyltetrahydro-2H-pyran-4-yl]-2-(1,3-thiazol-4-ylmethyl)-1H-imidazo[4,5-c]quinoline-8-carbonitrile] | 196 nM | 382 nM | – | – | – | –
15 | COc1ccc2ncc3nc(Cc4ccon4)n([C@H]4CCO[C@@H](C)C4)c3c2c1 [enantiomer of Example 62, 8-methoxy-1-[(2S,4S)-2-methyltetrahydro-2H-pyran-4-yl]-2-(1,2-oxazol-3-ylmethyl)-1H-imidazo[4,5-c]quinoline] | 508 nM | 1710 nM | – | – | – | –
16 | C[C@H]1C[C@@H](n2c(Cn3cncn3)nc3cnc4ccc(Cl)cc4c32)CCO1 [enantiomer of Example 65, 8-chloro-1-[(2S,4S)-2-methyltetrahydro-2H-pyran-4-yl]-2-(1H-1,2,4-triazol-1-ylmethyl)-1H-imidazo[4,5-c]quinoline] | 241 nM | 687 nM | – | – | – | –
17 | CC[C@H]1C[C@@H](n2c(Cc3ccon3)nc3cnc4ccc(C#N)cc4c32)CCO1 [enantiomer of Example 67, 1-[(2S,4S)-2-ethyltetrahydro-2H-pyran-4-yl]-2-(1,2-oxazol-3-ylmethyl)-1H-imidazo[4,5-c]quinoline-8-carbonitrile] | 403 nM | 699 nM | – | – | – | –
18 | C[C@H]1C[C@@H](n2c(Cc3ccon3)nc3cnc4cccnc4c32)CCO1 [enantiomer of Example 68, 1-[(2 S,4S)-2-methyltetrahydro-2H-pyran-4-yl]-2-(1,2-oxazol-3-ylmethyl)-1H-imidazo[4,5-c][1,5]naphthyridine] | 632 nM | 853 nM | – | – | – | –
19 | COc1ccc2ncc3nc(Cc4noc(C)n4)n([C@H]4CCO[C@@H](C)C4)c3c2c1 [enantiomer of Example 87, 8-methoxy-2-[(5-methyl-1,2,4-oxadiazol-3-yl)methyl]-1-[(2S,4S)-2-methyltetrahydro-2H-pyran-4-yl]-1H-imidazo[4,5-c]quinoline] | 929 nM | 2850 nM | – | – | – | –
20 | COc1ccc2ncc3nc(Cn4cc(C)nn4)n([C@H]4CCO[C@@H](C)C4)c3c2c1 [enantiomer of Example 88, 8-methoxy-1-[(2S,4S)-2-methyltetrahydro-2H-pyran-4-yl]-2-[(4-methyl-1H-1,2,3-triazol-1-yl)methyl]-1H-imidazo[4,5-c]quinoline] | 372 nM | 1050 nM | – | – | – | –
21 | COc1ccc2ncc3nc(Cc4cn5ncsc5n4)n([C@H]4CCO[C@@H](C)C4)c3c2c1 [enantiomer of Example 90, 2-(imidazo[2,1-b][1,3,4]thiadiazol-6-ylmethyl)-8-methoxy-1-[(2S,4S)-2-methyltetrahydro-2H-pyran-4-yl]-1H-imidazo[4,5-c]quinoline] | 245 nM | 623 nM | – | – | – | –
